Results published in PubChem BioAssay (NCI).
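Each compound was tested at five concentrations against cells in 96-well plates for 48 hours. The concentration for full growth arrest is given as TGI.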

Experiments:
Assay in all cases: NCI tumour cell line growth inhibition, 48 h
OVCAR-4 ovarian = tested on: OVCAR-4 ovarian
HOP-92 NSCLC = tested on: HOP-92 NSCLC
786-0 renal = tested on: 786-0 renal
DLD-1 colon = tested on: DLD-1 colon
MOLT-4 leukemia = tested on: MOLT-4 leukemia
SNB-78 CNS = tested on: SNB-78 CNS
HCT-15 colon = tested on: HCT-15 colon
K-562 leukemia = tested on: K-562 leukemia
SW-620 colon = tested on: SW-620 colon
UO-31 renal = tested on: UO-31 renal
M19-MEL melanoma = tested on: M19-MEL melanoma
UACC-62 melanoma = tested on: UACC-62 melanoma
ACHN renal = tested on: ACHN renal
HL-60(TB) leukemia = tested on: HL-60(TB) leukemia
M14 melanoma = tested on: M14 melanoma
HOP-62 NSCLC = tested on: HOP-62 NSCLC
NCI-H460 lung = tested on: NCI-H460 lung
UACC-257 melanoma = tested on: UACC-257 melanoma
HCC-2998 colon = tested on: HCC-2998 colon
U251 CNS = tested on: U251 CNS
OVCAR-8 ovarian = tested on: OVCAR-8 ovarian
HT29 colon = tested on: HT29 colon
SF-295 CNS = tested on: SF-295 CNS
SNB-75 CNS = tested on: SNB-75 CNS
SN12C renal = tested on: SN12C renal
HCT-116 colon = tested on: HCT-116 colon
COLO 205 colon = tested on: COLO 205 colon
SR leukemia = tested on: SR leukemia
SNB-19 CNS = tested on: SNB-19 CNS
HOP-18 NSCLC = tested on: HOP-18 NSCLC
OVCAR-3 ovarian = tested on: OVCAR-3 ovarian
EKVX NSCLC = tested on: EKVX NSCLC
A549 NSCLC = tested on: A549 NSCLC
A498 renal = tested on: A498 renal
KM20L2 colon = tested on: KM20L2 colon
CCRF-CEM leukemia = tested on: CCRF-CEM leukemia
NCI-H23 lung = tested on: NCI-H23 lung
CAKI-1 renal = tested on: CAKI-1 renal
XF 498 CNS = tested on: XF 498 CNS
SK-OV-3 ovarian = tested on: SK-OV-3 ovarian
DMS 114 small cell lung = tested on: DMS 114 small cell lung
SK-MEL-2 melanoma = tested on: SK-MEL-2 melanoma
KM12 colon = tested on: KM12 colon
SF-539 CNS = tested on: SF-539 CNS
IGROV1 ovarian = tested on: IGROV1 ovarian
DMS 273 small cell lung = tested on: DMS 273 small cell lung
LXFL 529 NSCLC = tested on: LXFL 529 NSCLC
RXF 393 renal = tested on: RXF 393 renal
RPMI-8226 leukemia = tested on: RPMI-8226 leukemia
SK-MEL-28 melanoma = tested on: SK-MEL-28 melanoma
RXF-631 renal = tested on: RXF-631 renal
LOX IMVI melanoma = tested on: LOX IMVI melanoma
SK-MEL-5 melanoma = tested on: SK-MEL-5 melanoma
OVCAR-5 ovarian = tested on: OVCAR-5 ovarian
NCI-H226 lung = tested on: NCI-H226 lung
TK-10 renal = tested on: TK-10 renal
SF-268 CNS = tested on: SF-268 CNS
NCI-H522 lung = tested on: NCI-H522 lung

COc1cc(OC)c([C@@H]2OC(=O)C3C2C(=O)O[C@H]3c2cc(OC)c(OC)cc2OC)cc1OC (stereo partly specified)
TGI (OVCAR-4 ovarian): > 100 µM
TGI (HOP-92 NSCLC): > 10 µM
TGI (786-0 renal): > 100 µM
TGI (DLD-1 colon): > 100 µM
TGI (MOLT-4 leukemia): > 100 µM
TGI (SNB-78 CNS): > 100 µM
TGI (HCT-15 colon): > 100 µM
TGI (K-562 leukemia): > 100 µM
TGI (SW-620 colon): > 10 µM
TGI (UO-31 renal): > 100 µM
TGI (M19-MEL melanoma): > 100 µM
TGI (UACC-62 melanoma): > 100 µM
TGI (ACHN renal): > 100 µM
TGI (HL-60(TB) leukemia): > 100 µM
TGI (M14 melanoma): > 100 µM
TGI (HOP-62 NSCLC): > 100 µM
TGI (NCI-H460 lung): > 100 µM
TGI (UACC-257 melanoma): > 100 µM
TGI (HCC-2998 colon): > 100 µM
TGI (U251 CNS): > 100 µM
TGI (OVCAR-8 ovarian): > 100 µM
TGI (HT29 colon): > 100 µM
TGI (SF-295 CNS): > 100 µM
TGI (SNB-75 CNS): > 100 µM
TGI (SN12C renal): > 100 µM
TGI (HCT-116 colon): > 100 µM
TGI (COLO 205 colon): > 100 µM
TGI (SR leukemia): > 100 µM
TGI (SNB-19 CNS): > 100 µM
TGI (HOP-18 NSCLC): > 100 µM
TGI (OVCAR-3 ovarian): > 100 µM
TGI (EKVX NSCLC): > 100 µM
TGI (A549 NSCLC): > 100 µM
TGI (A498 renal): > 100 µM
TGI (KM20L2 colon): > 100 µM
TGI (CCRF-CEM leukemia): > 100 µM
TGI (NCI-H23 lung): > 100 µM
TGI (CAKI-1 renal): > 100 µM
TGI (XF 498 CNS): > 100 µM
TGI (SK-OV-3 ovarian): > 100 µM
TGI (DMS 114 small cell lung): > 100 µM
TGI (SK-MEL-2 melanoma): > 100 µM
TGI (KM12 colon): > 100 µM
TGI (SF-539 CNS): > 100 µM
TGI (IGROV1 ovarian): > 10 µM
TGI (DMS 273 small cell lung): > 100 µM
TGI (LXFL 529 NSCLC): > 100 µM
TGI (RXF 393 renal): > 100 µM
TGI (RPMI-8226 leukemia): > 100 µM
TGI (SK-MEL-28 melanoma): > 100 µM

O=C1C(=O)N(C(=O)c2ccc(Cl)c(Cl)c2)c2ccccc21
TGI (OVCAR-4 ovarian): > 100 µM
TGI (RXF-631 renal): > 100 µM
TGI (786-0 renal): > 100 µM
TGI (DLD-1 colon): > 100 µM
TGI (MOLT-4 leukemia): > 100 µM
TGI (SNB-78 CNS): > 100 µM
TGI (K-562 leukemia): > 100 µM
TGI (SW-620 colon): > 100 µM
TGI (UO-31 renal): > 100 µM
TGI (M19-MEL melanoma): > 100 µM
TGI (UACC-62 melanoma): > 100 µM
TGI (LOX IMVI melanoma): > 100 µM
TGI (ACHN renal): > 100 µM
TGI (HL-60(TB) leukemia): > 100 µM
TGI (M14 melanoma): > 100 µM
TGI (SK-MEL-5 melanoma): > 100 µM
TGI (U251 CNS): > 100 µM
TGI (OVCAR-8 ovarian): > 100 µM
TGI (HT29 colon): > 100 µM
TGI (SF-295 CNS): > 100 µM
TGI (SNB-75 CNS): > 100 µM
TGI (COLO 205 colon): > 100 µM
TGI (SR leukemia): > 100 µM
TGI (SNB-19 CNS): > 100 µM
TGI (OVCAR-5 ovarian): > 100 µM
TGI (HOP-18 NSCLC): > 100 µM
TGI (OVCAR-3 ovarian): > 100 µM
TGI (EKVX NSCLC): > 100 µM
TGI (NCI-H226 lung): > 100 µM
TGI (A549 NSCLC): > 100 µM
TGI (CCRF-CEM leukemia): > 100 µM
TGI (TK-10 renal): > 100 µM
TGI (NCI-H23 lung): > 100 µM
TGI (SK-OV-3 ovarian): > 100 µM
TGI (DMS 114 small cell lung): > 100 µM
TGI (SF-268 CNS): > 100 µM
TGI (KM12 colon): > 100 µM
TGI (SF-539 CNS): > 100 µM
TGI (IGROV1 ovarian): > 100 µM
TGI (DMS 273 small cell lung): > 100 µM
TGI (LXFL 529 NSCLC): > 100 µM
TGI (RXF 393 renal): > 100 µM
TGI (RPMI-8226 leukemia): > 100 µM
TGI (SK-MEL-28 melanoma): > 100 µM

N/N=C(\C(=O)Nc1c(Cl)cc([N+](=O)[O-])cc1Cl)C(c1cnc2ccc([N+](=O)[O-])cc2n1)[N+](=O)[O-] (stereo unspecified)
TGI (OVCAR-4 ovarian): > 100 µM
TGI (HOP-92 NSCLC): > 100 µM
TGI (DLD-1 colon): > 100 µM
TGI (MOLT-4 leukemia): > 100 µM
TGI (SNB-78 CNS): > 100 µM
TGI (HCT-15 colon): > 100 µM
TGI (K-562 leukemia): > 100 µM
TGI (SW-620 colon): > 100 µM
TGI (UO-31 renal): > 100 µM
TGI (M19-MEL melanoma): > 100 µM
TGI (UACC-62 melanoma): > 100 µM
TGI (LOX IMVI melanoma): > 100 µM
TGI (ACHN renal): > 100 µM
TGI (HL-60(TB) leukemia): > 100 µM
TGI (HOP-62 NSCLC): > 100 µM
TGI (NCI-H460 lung): > 100 µM
TGI (SK-MEL-5 melanoma): > 100 µM
TGI (UACC-257 melanoma): > 100 µM
TGI (HCC-2998 colon): > 100 µM
TGI (U251 CNS): > 100 µM
TGI (OVCAR-8 ovarian): > 100 µM
TGI (HT29 colon): > 100 µM
TGI (SF-295 CNS): > 100 µM
TGI (SNB-75 CNS): > 100 µM
TGI (SN12C renal): > 100 µM
TGI (HCT-116 colon): > 100 µM
TGI (COLO 205 colon): > 100 µM
TGI (SR leukemia): > 100 µM
TGI (SNB-19 CNS): > 100 µM
TGI (OVCAR-5 ovarian): > 100 µM
TGI (EKVX NSCLC): > 100 µM
TGI (NCI-H226 lung): > 100 µM
TGI (A549 NSCLC): > 100 µM
TGI (A498 renal): > 100 µM
TGI (KM20L2 colon): > 100 µM
TGI (CCRF-CEM leukemia): > 100 µM
TGI (TK-10 renal): > 100 µM
TGI (NCI-H23 lung): > 100 µM
TGI (CAKI-1 renal): > 100 µM
TGI (XF 498 CNS): > 100 µM
TGI (SK-OV-3 ovarian): > 100 µM
TGI (DMS 114 small cell lung): > 100 µM
TGI (NCI-H522 lung): 53.3 µM
TGI (SK-MEL-2 melanoma): > 100 µM
TGI (SF-268 CNS): > 100 µM
TGI (KM12 colon): > 100 µM
TGI (SF-539 CNS): > 100 µM
TGI (IGROV1 ovarian): > 100 µM
TGI (DMS 273 small cell lung): > 100 µM
TGI (RXF 393 renal): > 100 µM
TGI (RPMI-8226 leukemia): > 100 µM
TGI (SK-MEL-28 melanoma): > 100 µM
